Blank lines part the entries; values can stand above or below the molecule they belong to.
Legend:
cynomolgus monkeys = system: cynomolgus monkeys; design: method as in Groot et al., 2005; conditions: ref Groot et al., 2005; cited from earlier work
C57Bl/6 mice = system: C57Bl/6 mice; design: method as in Miao et al., 2004; conditions: ref Miao et al., 2004, cited from earlier work
PXR = target: T1, PXR (Homo sapiens, UniProt O75469); experiment: Coactivator SRC1-4 recruitment Lanthascreen PXR; type: biochemical; conditions: benchmark SR12813
T1 sequence (O75469 146-433 limits assumed): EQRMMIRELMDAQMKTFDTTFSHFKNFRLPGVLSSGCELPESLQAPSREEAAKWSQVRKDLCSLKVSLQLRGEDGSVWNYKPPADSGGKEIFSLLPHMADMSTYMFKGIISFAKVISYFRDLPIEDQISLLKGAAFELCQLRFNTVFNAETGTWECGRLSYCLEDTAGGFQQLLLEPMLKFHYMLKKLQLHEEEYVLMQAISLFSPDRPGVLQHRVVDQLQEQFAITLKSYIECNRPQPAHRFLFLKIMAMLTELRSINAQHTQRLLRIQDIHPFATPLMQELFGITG

LXRβ [1] = target: T2, LXRβ (Homo sapiens, UniProt P55055); experiment: SRC-1 coactivator recruitment to LXRβ, coregulator TR-FRET (CRT); type: biochemical; design: The CRT selectivity assay incorporates GST-tagged LXR-LBD; purchased Thermo Fisher Scientific PV4660
T2 sequence (P55055 222-460 limits assumed): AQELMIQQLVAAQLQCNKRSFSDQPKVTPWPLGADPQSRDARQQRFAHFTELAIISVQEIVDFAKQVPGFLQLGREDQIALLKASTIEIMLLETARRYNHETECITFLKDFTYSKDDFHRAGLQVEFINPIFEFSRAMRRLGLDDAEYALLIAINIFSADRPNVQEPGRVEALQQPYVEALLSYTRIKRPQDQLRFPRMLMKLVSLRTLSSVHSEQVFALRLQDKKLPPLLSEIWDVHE

Hamsters = system: Hamsters; design: method as in Groot et al., 2005; conditions: ref Groot et al., 2005; cited from earlier work
LXRβ [2] = target: T2, LXRβ; experiment: SMRT2 corepressor binding to LXRβ, CRT; type: biochemical; design: The CRT selectivity assay incorporates GST-tagged LXR-LBD; purchased Thermo Fisher Scientific PV4660; conditions: for activity at 1 µM: read-out: SMRT2β, relative % activity at 1 μM
LXRα [3] = target: T3, LXRα (Homo sapiens, UniProt Q13133); experiment: SMRT2 corepressor binding to LXRα, CRT; type: biochemical; design: The CRT selectivity assay incorporates GST-tagged LXR-LBD; purchased Thermo Fisher Scientific PV4657; conditions: for activity at 1 µM: ligand 1 µM, interpolated from concentration-response, normalized, heat map Figure 9A, read-out: SMRT2α, relative % activity at 1 μM
T3 sequence (Q13133 209-447 limits assumed): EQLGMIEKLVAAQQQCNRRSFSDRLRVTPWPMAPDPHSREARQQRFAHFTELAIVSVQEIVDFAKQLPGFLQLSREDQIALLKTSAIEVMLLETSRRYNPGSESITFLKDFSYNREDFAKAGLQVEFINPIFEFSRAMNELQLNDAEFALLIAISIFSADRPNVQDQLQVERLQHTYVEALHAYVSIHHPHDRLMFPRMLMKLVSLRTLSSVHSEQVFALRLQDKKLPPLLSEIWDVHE

LXR [4] = experiment: Multiplex precision CRT (pCRT), SRC1 and NCOR2, LXR isoform not specified; type: biochemical; conditions: pCRT versus monoplex CRT
LXRβ [5] = target: T2, LXRβ; experiment: NCOR2 corepressor binding to LXRβ, CRT; type: biochemical; design: The CRT selectivity assay incorporates GST-tagged LXR-LBD; purchased Thermo Fisher Scientific PV4660; conditions: for Effect on NCOR2 binding to LXRβ: monoplex CRT, absence of SRC1; for activity at 1 µM: read-out: NCOR2β, relative % activity at 1 μM
LXRα [6] = target: T3, LXRα; design: The CRT selectivity assay incorporates GST-tagged LXR-LBD; purchased Thermo Fisher Scientific PV4657; method as in Albers et al., 2006; conditions: >1 µM; ref Albers et al., 2006; cited from earlier work
LXRα [7] = target: T3, LXRα; experiment: NCOR2 corepressor binding to LXRα, CRT; type: biochemical; design: The CRT selectivity assay incorporates GST-tagged LXR-LBD; purchased Thermo Fisher Scientific PV4657; conditions: for activity at 1 µM: ligand 1 µM, interpolated from concentration-response, normalized, heat map Figure 9A, read-out: NCOR2α, relative % activity at 1 μM; for Effect on NCOR2 binding to LXRα: monoplex CRT, absence of SRC1
RXRα = target: T4, RXRα (Homo sapiens, UniProt P19793); experiment: Coactivator D22 recruitment Lanthascreen RXRα; type: biochemical; conditions: normalized to SR11237
T4 construct: the reductionist system of NR-LBD with short coregulator peptides as used in the present work; purchased Thermo Fisher Scientific PV4799
T4 sequence (P19793 227-458 limits assumed): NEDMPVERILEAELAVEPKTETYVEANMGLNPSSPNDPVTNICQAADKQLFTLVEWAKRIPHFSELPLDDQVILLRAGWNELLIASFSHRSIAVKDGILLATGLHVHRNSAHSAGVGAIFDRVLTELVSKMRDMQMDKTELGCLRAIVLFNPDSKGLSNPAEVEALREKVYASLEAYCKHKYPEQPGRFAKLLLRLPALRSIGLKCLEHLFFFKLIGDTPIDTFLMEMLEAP

LXR [8] = experiment: Corepressor (NCOR2, SMRT2) binding to LXR, CRT, statements across isoforms; type: biochemical; conditions: monoplex CRT, absence of coactivator
mice = system: mice; design: method as in Kick et al., 2015; Kirchgessner et al., 2015; conditions: highest dose 30 mg/kg qd, ref Kick et al., 2015, Kirchgessner et al.; cited from earlier work
[9] = system: sterol response element (SRE); experiment: SRE-luc reporter assay in HepG2 cells; type: cell-based, human
Text: Our phenotypic high-throughput screen (HTS) approach to identify nonlipogenic ABCA1 Inducers (NLAI) originally used counterscreening with a SREBP1c-luciferase reporter (linked to the SREBF1 gene promoter) in human hepatocarcinoma HepG2 cells ([Ben Aissa et al., 2021]). Unwanted lipogenesis is mediated by LXR agonists via direct transcriptional activation and indirectly by the effects of SREBP1c ([Schultz et al., 2000]; [Brown and Goldstein, 1997]). SREBP1c enhances transcription of genes required for synthesis of fatty acids and TG and as the dominant isoform in liver is associated most closely with lipogenesis and TG elevation ([Brown and Goldstein, 1997]). […] Binding of SREBP1c to the sterol response element (SRE) induces transcription of lipogenic genes associated with elevated TG. To better model the lipogenic axis in hepatocytes, we use HepG2 cells stably transfected with a nanoluciferase reporter downstream of a SRE promoter (SRE-luc), activation of which requires SREBP1c maturation.
HepG2 cells were cotransfected with SRE (LDLR)-NlucP SuperPiggyBac Transposon and a separate Transposase plasmid (System Biosciences). Cells were expanded for multiple passages followed by selection with puromycin (1 μg/ml). Stable cells constitutively express GFP allowed for FACS enrichment and/or cell cloning. Initially, stable pools were compared to low expressing and high expressing enriched pools. The optimal pool was selected based on assay performance (Z’) and was grown and maintained as above, with the addition of 1.0 μg/mL of puromycin biweekly.
Cells were split into flasks containing CS medium (EMEM supplemented with 10% charcoal stripped FBS (Gibco A52567-01)) and 1% P/S and grown at 37 °C /5% CO2 for 48 hr before plating. Cells were plated in 384-well, white clear tissue culture plates (Greiner 781098) and allowed to grow at 37 °C /5% CO2 for 24 hr before medium was aspirated and compound dilutions prepared in CS medium were added. Following a 24 hr incubation, the medium was aspirated, and cells were lysed/luminescence quantified using the Nano-Glo Luciferase Assay System (Promega N1130).

[10] = ligand 1 µM, interpolated from concentration-response, normalized, heat map Figure 9A

PXR agonism/binding in CRT (PXR): no binding to PXR
SRC1β, relative % activity at 1 μM (LXRβ [1]): 95.64%
activity at 1 µM (LXRβ [2]): 92.5%
activity at 1 µM (LXRα [3]): 92.4%
Left-shift in the NCOR2 displacement curve in presence of SRC1 (LXR [4]): 100 fold
activity at 1 µM (LXRβ [5]): 92.3%
activity at 1 µM (LXRα [7]): 99.1%
SMILES: O=C(O)Cc1cccc(OCCCN(Cc2cccc(C(F)(F)F)c2Cl)CC(c2ccccc2)c2ccccc2)c1 [GW3965]
Plasma LDL, HDL and TG (cynomolgus monkeys): increased LDL and HDL at 7 days treatment only, with no effect on TG
Liver weight and TGs (C57Bl/6 mice; 3 days treatment, GW3965 even at 100 mg/kg/day): no effect on these liver markers
SREBP1c and FAS expression in the liver (C57Bl/6 mice; 3 days treatment): minimal increases in SREBP1c and FAS expression in the liver
ABCA1 expression in peripheral macrophages (C57Bl/6 mice): sevenfold
ABCA1 expression in the small intestine (C57Bl/6 mice): eightfold
Plasma TG, LDL-C and VLDL-C (Hamsters): dose-dependent increase
Effect on NCOR2 binding to LXRβ (LXRβ [5]): displacement of NCOR2 from both LXR isoforms
Recruitment of NCOR1 to LXRα (LXRα [6]): Weak recruitment of NCOR1 to LXRα
Effect on NCOR2 binding to LXRα (LXRα [7]): displacement of NCOR2 from both LXR isoforms

SMILES: CC1(C)CCC(C)(C)c2cc(C3(c4ccc(C(=O)O)cc4)OCCO3)ccc21 [SR11237]
RXRα CRT response (RXRα): RXRα-selective full agonists

activity at 1 µM (LXRβ [2]; [10]): 102%
Effect on SMRT2 binding to LXRβ (LXRβ [2]; monoplex CRT): did not perturb SMRT2 binding to LXRβ
activity at 1 µM (LXRα [3]): 97%
activity at 1 µM (LXRβ [5]; [10]): 107%
activity at 1 µM (LXRα [7]): 100%
SMILES: CC(C)(O)c1cn(-c2ccc(-c3cccc(S(C)(=O)=O)c3)cc2)c(C(C)(C)c2ccccc2Cl)n1 [XL652]
Corepressor (NCOR2, SMRT2) displacement or stabilization, across LXR isoforms (LXR [8]): strongly stabilized the corepressor-bound conformation
Plasma TGs (mice): elevated plasma TGs only at the highest dose
Effect on SMRT2 binding to LXRα (LXRα [3]; monoplex CRT): stabilization of SMRT2 corepressor binding to LXRα
Effect on NCOR2 binding to LXRβ (LXRβ [5]): weakly destabilized the NCOR2 complex with both LXR isoforms
SRE activation response/phenotype in HepG2 [9]: little or no activation of SRE at submicromolar concentrations
Efficacy of SRE activation at concentrations ≤1 µM ([9]; concentrations ≤1 µM): 20–25 % of T0
Effect on NCOR2 binding to LXRα (LXRα [7]): weakly destabilized the NCOR2 complex with both LXR isoforms
